Reference: patent US20030096782A1, “Expression profiling in the intact human heart” (The Regents of the University of Colorado, priority 2001, published 2003)

System: subjects with idiopathic dilated cardiomyopathy (IDC)
Experiment: Serial study of subjects with idiopathic dilated cardiomyopathy treated with β-blocking agents or placebo (LVEF / phenotype)
Format: in vivo, human
Conditions: for phenotype: baseline versus after 6 months of treatment; for left ventricular ejection fraction (LVEF): subjects with baseline IDC, 6-7 month period, change versus baseline
Experimental: Dynamic expression profiling was performed in the intact human heart in 8 subjects with idiopathic dilated cardiomyopathy (IDC), on RNA extracted from RV septal endomyocardial biopsies performed at baseline and after 6 months treatment with β-blocking agents (n=6) or placebo (n=2). Affmetrix™ U95a GeneChips, which contain 12,625 gene sequences/chip, were used for expression profiling.
Endomyocardial biopsies were obtained during a 6-7 month period from eight subjects with baseline idiopathic dilated cardiomyopathy (IDC). Of these subjects, six were treated with the β-blocking agents carvedilol and metoprolol, and two were treated with placebo.
Biopsied samples obtained from these subjects were analyzed by quantitative reverse transcript polymerase chain reaction (QRT PCR), and the mRNAs obtained were further analyzed by Affymetrix Gene chip. Subjects with ideal substantial noise ratios were categorized in the low scaling factor group and those with substantial noise, which compromised quantitation, categorized in the high scaling factor group. Gene expression patterns were further compared between the seven subjects showing improved phenotypes and the one subject showing worsening phenotype. Of the four subjects in the low scaling group showing an improved LVEF, one had received placebo, one carvedilol, and one metoprolol, with the fourth subject treated with placebo showing a decrease LVEF. Of the four subjects in the high scaling group three received carvedilol and one received metoprolol.
Serial measurements of myocardial gene expression were performed on 4 subjects with […], at baseline and after 6 months of treatment with β-blocking agents (n=2, 1 carvediol and 1 metroprolol) or placebo (n=2). RNA was extracted from endomyocardial biopsy material, and expression profiling was performed via Affymetrix U95a GeneChips. […] In the three subjects who improved, a between-subject anaylsis was performed at baseline, and compared to a within-subject comparison between baseline and end of study.

SMILES | phenotype | left ventricular ejection fraction (LVEF)
COCCc1ccc(OCC(O)CNC(C)C)cc1 (stereo not shown) [metoprolol] | improvement in phenotype | improved
COc1ccccc1OCCNCC(O)COc1cccc2[nH]c3ccccc3c12 (stereo not shown) [carvedilol] | improvement in phenotype | improved
